One assay concerns neutrophils. As to the kind of experiment: Inhibition of oxidative burst from neutrophils (fMLP-induced superoxide release). Format: cell-based. The conditions noted are these: Neutrophil, reduction of superoxide formation, fMLP 0.2 μM, 0 to 100 μM compound; read-out: ED50 Respiratory Burst. How it is done:
During inflammation, neutrophils produce and release superoxide ions, otherwise known as oxidative burst response, causing cytotoxicity. […] The superoxide release assay is based on published protocols (Goldstein et al. (1975). J. Clin. Invest. 56(5): 1155-63). Briefly, cells were pre-incubated for 10 min at 37° C. with a mixture of cytochrome c (75 μM final concentration), cytochalasin B (5 μg/ml) with or without superoxide dismutase (SOD) (10 μg/ml) and with or without AFC, AFC-Calcium complex, and AFC-Strontium complex (ranging from 0 to 100 μM). To initiate O2^− release, fMLP (0.2 μM) was added the cells are incubated for 10 min at 37° C. Samples were then placed on ice for 5 min and subsequently centrifuged at 3,000 rpm at 4° C. The supernatant was then analyzed by spectrophotometric measurement at 550 and 556.5 nm. The ED50 values for the reduction of superoxide formation, obtained with AFC, AFC-Calcium complex, and AFC-Strontium complex are depicted in Table 2.

For assay [1], the system named is Propionibacterium acnes (strain ATCC 6919). As to the kind of experiment: Inhibition of Propionibacterium acnes growth. Format: cell-based. The note with it: Cutibacterium acnes, ATCC6919, 72 h, 72 hours, anaerobic, absorbance 600 nm, 1×10^6 CFU per mL; read-out: IC50 (inhibition of P. acnes growth). How it is done:
The assay for the inhibition of growth of Propionibacterium acnes bacteria is described elsewhere (Nakatsuji et al., J Invest Dermatol, 2009, 129: 2480-2488). In brief, the strain ATCC 6919 of P. acnes (American Type Culture Collection, Manassas, Va.) was cultured on Brucella agar (R01254, Remel, Lenexa, Kans.) supplemented with 5% (v/v) defibrinated sheep blood, vitamin K (5 mg/ml, Remel, Lenexa, Kans.), and hemin (50 mg/ml, Remel, Lenexa, Kans.), under an anaerobic condition using Gas-Pak (BD, Sparks, Md.) at 37° C. A single colony was inoculated in Reinforced Clostridium Medium (Oxford, Hampshire, England) and cultured at 37° C. under the anaerobic condition. Each of the inventive complexes—AFC-Sr, AFC-Ag and AFC-Zn as well as AFC were dissolved in 100% (v/v) DMSO. Samples of each inventive complex, AFC and a solution of benzoyl peroxide (“BPO”) were then each incubated with an inoculum of P. acnes at a concentration of 1×10^6 CFU per mL in Reinforced Clostridium Medium in a 96-well microplate (100 μL per well) under anaerobic conditions for 72 hours. Samples of each were tested at final concentrations per well of 0.25 μg/mL, 0.5 μg/mL, 1.0 μg/mL, 1.95 μg/mL, 3.9 μg/mL, 7.8 μg/mL, 15.625 μg/mL, 31.25 μg/mL, 62.5 μg/mL, 125 μg/mL, 250μg/mL, and 500 μg/mL. A control well received only 5% (v /v) of DMSO in place of a sample of an inventive complex. After 72 hours incubation under anaerobic conditions, the P. acnes cultures in the 96-well microplate were mixed well and then absorbance readings at 600 nm were taken to determine bacterial growth. […] Growth curves of P. acnes determined for BPO, AFC, AFC-Sr, AFC-Ag and AFC-Zn are depicted in FIG. 3.

Assay [2] relates to MPO (myeloperoxidase), neutrophil marker. As to the kind of experiment: TPA mouse ear model of inflammation - MPO inhibition (dermal neutrophil infiltration). Format: in vivo. The conditions noted are these: TPA-treated mouse ear. Here is the method:
Briefly, we homogenized 6mm biopsy punches taken from both compound-treated ears as well as TPA-treated and non-treated control groups. We quantitated the levels of MPO by a colorimetric reaction that was measured spectrophotometrically. The percent inhibition of neutrophil infiltration by each complex was determined by comparing the average MPO levels in the presence and absence of these compounds. The calculation for percent inhibition of MPO was determined similar to that as described for calculating the percent edema inhibition, see the Edema Inhibition protocol, supra.

Assay [3] concerns TPA-treated mouse ears (edema, ear thickness). Kind of assay: TPA mouse ear model of inflammation - edema inhibition. Format: in vivo. The note with it: topical, 24 hours.
Assay [4] deals with TPA-treated mouse ears (erythema, Δa* redness). Kind of assay: TPA mouse ear model of inflammation - erythema inhibition. Format: in vivo. The conditions noted are these: topical, 24 hours. How it is done:
The protocol for measuring erythema inhibition by provided complexes was developed in-house by utilizing the CR-400 chroma meter from Konica Minolta (2). This instrument was used to measure the Δa*redness value from 6 mm biopsy punches taken 24 hours post TPA/compound treatment as described in the edema inhibition section above. […] These values were corrected for the Δa* value of non TPA-treated mouse ears of littermate controls.

Assay [5] concerns TPA-treated mouse ears (edema, ear thickness). Kind of assay: TPA mouse ear model of inflammation - edema inhibition. Format: in vivo. The conditions noted are these: TPA-treated mouse ear. Here is the method: In brief, mice were sedated and their ears were treated with 1.2 μg/20 uL TPA (i.e., tetradecanoylphorbol-13-acetate). After 5 minutes, we dosed these TPA-treated ears with a single 8 μg/20 μL dose, a 2 μg/20 μL dose, or both doses, of provided complexes. After 24 hours, the mice were sacrificed and edema was measured by taking micrometer readings of each ear. […] These values were corrected for the thickness of normal, non TPA-treated mouse ears of littermate controls.

[6] abbreviates: at the dose tested, AFC oil n=1, data not shown.

Values after ≈ are worked out from the molar mass of the structure shown.

For orientation: IC50 means the concentration needed to halve the response being measured.

Regarding `CC(=O)N[C@@H](CSC/C=C(\C)CC/C=C(\C)CCC=C(C)C)C(=O)O` [AFC, N-acetyl-S-farnesyl-L-cysteine, reference compound], in the assay with neutrophils, the EC50 came to 0.0433 mM. Moreover, the IC50 in assay [1] was determined as 12.9 µg/mL (≈ 35.1 µM). Besides, the “inhibition of neutrophil infiltration” value in assay [2] (setting [6]) is 55.90%. Besides, the “ED50 in the MPO assay” value in assay [2] (several concentrations, inhibitory activity curves) is 651 μg/ear. Further, the “% MPO Inhibition in the Mouse Ear Inflammation Assay (4% concentration)” value in assay [2] (topical, 4% concentration, 24 hours) is given as “++ (“++” indicates a range of 40-80%)”. Further, the “ED50 value for inhibiting neutrophil infiltration” value in assay [2] (topical, listed as AFC oil) is recorded as 38.8 mM. Besides, the “% Edema Inhibition in the Mouse Ear Inflammation Assay (4% concentration)” value in assay [3] is on record as “+++ (“+++” indicates >50% inhibition of edema)”. Also, in assay [4], the “% Erythema Inhibition in the Mouse Ear Inflammation Assay (4% concentration)” value was “++ (“++” indicates a range of 20-40%)”. For the same molecule, in assay [5] (setting [6]), the inhibition of edema was found to be 56.35%. In addition, the “ED50 for edema inhibition” value in assay [5] (topical, listed as AFC oil) is given as 54.8 mM.

The values above are taken from patent US20100247461A1, “ANTI-INFLAMMATORY COMPLEXES” (Signum Biosciences, Inc., priority 2009, published 2010).
